Results: patent US20250352486A1, “NANOPARTICLES FOR USE IN THE TREATMENT OF INFECTIONS CAUSED BY BIOFILMS” (Universitat Politècnica De València, priority 2022, published 2025)

Key:
Assay type in all cases: cell-based
[1] = test system: endodontic biofilms from root canals; test: Disruption of endodontic biofilms (xCELLigence); conditions: 16 μg/ml in suspension, added after 6 h of growth
Description: FIG. 4.1. Disruption of endodontic biofilms using platinum and silica nanoparticles loaded with metronidazole. Endodontic biofilms were cultured in the xCELLigence system and after 6 hours of growth they were treated with 1 mg/ml of nanoparticles containing 2.25 μg of metronidazole, or with metronidazole in suspension at a concentration of 16 μg/ml, and compared to the untreated control (black curve). The black arrow indicates the time when the biofilm was treated. The biofilm comes from root canal samples extracted during a root canal and contains a complex microbial community formed by dozens of bacteria that cause this infection. Endodontic biofilms from root canals were collected with sterile files and placed in 1 ml of VMG (Ill) transport medium ([…] et al., 1993). Subsequently, the samples were transported to the laboratory where they were subjected to stirring for 3 minutes. Then, the files were extracted, the samples were centrifuged for 5 min at 10,000 rpm and the supernatant was discarded. The obtained pellet was resuspended with 1 ml of BHI (brain-heart infusion) culture medium and the samples were cultured in micro dilution plates of the xCELLigence impedance measurement system for 6 h, following the protocol described by Mira et al. 2019 (J Oral Microbiol). […]

[2] = test system: polymicrobial oral biofilms (dental plaque); test: Effect on preformed oral biofilms derived from saliva (xCELLigence); conditions: 16 μg/ml, two donors (A, B)
Description: FIG. 5.1. Effect of platinum and mesoporous silica nanoparticles loaded with metronidazole on preformed oral biofilms derived from saliva samples of two independent donors (A and B). The biofilms were grown in the xCELLigence system for 6 hours, and subsequently treated with metronidazole in suspension (concentration of 16 μg/ml) or with nanoparticles loaded with metronidazole (1 mg/ml of nanoparticles containing 2.25 μg metronidazole). The black arrows indicate the time when the treatment was added, whereas the black curves represent the untreated control. The biofilm comes from saliva samples and contains a complex microbial community made up of dozens of dental plaque-forming bacteria. To investigate the effect of platinum (Pt) and mesoporous silica nanoparticles on polymicrobial oral biofilms (dental plaque), biofilms derived from the saliva of two independent donors were cultured in the xCELLigence system for 6 hours, following the protocol described by Mira et al. 2019 (J Oral Microbiol). Subsequently, free metronidazole (at a concentration of 16 μg/ml), or nanoparticles with metronidazole (1 mg/ml of nanoparticles containing 2.25 μg of metronidazole) was added to evaluate the effect on said biofilms. […]

[3] = test system: Candida albicans biofilms; test: Eradication of mature Candida albicans biofilms (xCELLigence); conditions: mature biofilms at 24 h; micafungin 1.5 μg/ml plus zymolyase 171 μg/ml, or 0.15% hydrogen peroxide
Description: Effect of platinum and mesoporous silica nanoparticles on the eradication of mature Candida albicans biofilms. C. albicans biofilms were cultured in the micro dilution plates of the xCELLigence system for 24 h and then treated with a combination of free micafungin together with zymolyase (an enzyme with the ability to disperse biofilm-forming cells), indicated in the legend as MZ, or with nanoparticles loaded with the antifungal micafungin and anchored with the enzyme zymolyase. […] The black curve represents the growth of the untreated biofilm and the black arrow indicates the time when the treatment was added.

Compound	more biofilm formation compared to the untreated control [1]	effect on salivary biofilm growth [2]	effect on biofilm formation [3]
Cc1ncc([N+](=O)[O-])n1CCO [metronidazole]	up to 15%	induction of biofilm growth	
OO [hydrogen peroxide]			induced the formation of biofilms
